Data from patent US9056923B2, “Mimetic peptides derived from collagen type IV and their use for treating angiogenesis- and lymphagiogenesis-dependent diseases” (THE JOHNS HOPKINS UNIVERSITY, priority 2010, dated 2015).
Square brackets hold non-standard residues; d marks the D form. Ends that are not written are not given here. Peptide text beside a SMILES is read from it. Phe(4-Cl) = N[C@@H](Cc1ccc(Cl)cc1)C(=O)O; Nle = CCCC[C@H](N)C(=O)O; Abu = CC[C@H](N)C(=O)O

What was measured:
Type in all cases: cell-based, human
HUVEC [1] = conditions: for Activity in Proliferation: Yes/No summary
Method: Several assays were used to test the peptides discussed in the Examples herein. A colorimetric based proliferation assay using WST-1 (Roche, 11644807001) proliferation reagent was carried out using HUVEC cells. 2000 cells/well were plated in 96-well plates and allowed to adhere overnight. On the following day, the media was exchanged with fully supplemented media containing peptides or equivalent DMSO vehicle for the controls. Three days later the media containing the peptides was replaced with serum-free EBM-2 media containing WST-1 reagent and the plates were incubated for four hours as per the manufacturer's recommendations. Changes in color, due to the formazan dye resulted from the cleavage of the tetrazolium salt WST-1 by the mitochondrial succinate-tetrazolium reductase, were read on a Victor V fluorescence plate reader (Perkin Elmer, MA) by measuring the absorbance at 450 nm Dose response curves of percent live cells (in comparison to untreated cells but incubated in complete media with 0.2% DMSO) were created. Assays were performed in at least two independent replicates and each replicate was performed using three experimental triplicates.

HUVEC [2] = assay: HUVEC migration assay (RT-CIM); conditions: for Activity in Migration: Yes/No summary, active = inhibitory potential greater than 30%; for Migration Inhibition (50 uM): 50 uM peptide
Method: The inhibitory potential of the peptides was measured using a real time migration assay system based on electrical impedance (RT-CIM, ACEA Biosciences, CA). CIM 16 well plates (Roche, 05665817001) are composed of a top and bottom chamber separated by a microporous (8 μm) polycarbonate membrane. The membrane was coated with fibronectin (20 μg/mL), and 45,000 cells/well in serum free media with or without peptides were added to the top compartment. Media with chemoattractant (i.e., fully supplemented EBM-2) was added to the bottom compartment of the chamber and the plate was incubated at 37° C. for 20 hours. The sensors integrated on the bottom side of the membrane monitor and continuously record changes in impedance as the cells move through the membrane. The RT-CIM technology allows for easy quantification of cell migration by monitoring the cell index derived from the measured impedances. Assays were performed in at least two independent replicates and each replicate was performed using two experimental duplicates.

HUVEC [3] = conditions: HUVEC; for Activity in Adhesion: Yes/No summary, active = inhibitory potential greater than 30%; for Adhesion Inhibition (100 uM): 100 uM peptide
Method: Similar to the migration assays, the inhibition activity of the peptide in cellular adhesion was assessed using the RT-CIM technology. In this case, 25,000 cells/well were plated in 16 wells E-plates (Roche, Basel Switzerland) in the presence or absence of the peptide. The adhesion was monitored over time (3 hours) by measuring changes in the electrical impedance, which is a direct measure of the cells adhering on the electrodes. […] Assays were performed in at least two independent replicates and each replicate was performed using two experimental duplicates.

HUVEC [4] = assay: HUVEC tube formation assay on Matrigel; conditions: for Tube formation Inhibition (100 uM): 100 uM peptide; for Activity in Tube formation: Yes/No summary; for inhibition of tube formation: concentration not given; for inhibition of tube formation (FIG. 20): high dose, 100 nM
Method: The compounds also were tested for their ability to inhibit tube formation, a process critical in angiogenesis. Endothelial cells spontaneously form a network of tubes when plated on extracts of extracellular matrix. This in vitro assay combines aspects of adhesion and migration and it is routinely used in angiogenesis research (Oliveira-Ferrer et al., 2008). The ability to inhibit tube formation is a comprehensive assessment of the anti-angiogenic potential. The protocol was described by Arnaoutova et al. (2009) and it consists of plating HUVEC on top of basement membrane extract and after incubation at 37° C. the cells naturally rearrange themselves in a network of tubes. Thus, 50 μL/well of Matrigel (BD Biosciences, San Jose, Calif.) was plated in a cold 96 well plate and incubated at 37° C. for 30 min for polymerization. 15,000 cells/well were added to the top of the gel and incubated in complete media in the presence or absence of peptide for 19 hours. Images were captured using the CCD Sensicam mounted on a Nikon microscope (Eclipse T-100). Assays were performed in at least two independent replicates and each replicate was performed using three experimental replicates and one image of a randomly chosen field was acquired per well.

CC[C@H](NC(=O)[C@H](Cc1ccccc1)NC(=O)[C@H](CCSC)NC(=O)[C@H](Cc1ccccc1)NC(=O)[C@@H]1CCCN1C(=O)[C@H](CCSC)NC(=O)[C@@H](NC(=O)[C@H](CO)NC(=O)[C@H](Cc1ccccc1)NC(=O)[C@H](CCCNC(=N)N)NC(=O)[C@H](CCCNC(=N)N)NC(=O)[C@@H](N)CC(C)C)[C@@H](C)O)C(=O)N[C@@H](CC(N)=O)C(=O)N[C@H](C(=O)N[C@@H](CC(N)=O)C(=O)N[C@H](C(=O)O)C(C)C)[C@@H](C)CC [SP2006, LRRFSTMPFMFAbuNINV] (H-LRRFSTMPFMF[Abu]NINV-OH; N-terminus and C-terminus assumed)
inhibition of proliferation (HUVEC [1]; HUVEC): did not inhibit proliferation | Activity in Proliferation (HUVEC [1]; HUVEC): No | Activity in Migration (HUVEC [2]): No | migration inhibition (HUVEC [2]; concentration not given): 18% | inhibition of adhesion at 50 μM (HUVEC [3]; 50 μM peptide): inhibition of adhesion | Activity in Adhesion (HUVEC [3]): Yes | Tube formation Inhibition (100 uM) (HUVEC [4]): Complete | Activity in Tube formation (HUVEC [4]): Yes | inhibition of tube formation (HUVEC [4]): Inhibition of tube formation | inhibition of tube formation (FIG. 20) (HUVEC [4]): active at inhibiting tube formation

CC[C@H](NC(=O)[C@H](Cc1ccccc1)NC(=O)[C@H](CCSC)NC(=O)[C@H](Cc1ccccc1)NC(=O)[C@@H]1CCCN1C(=O)[C@H](CCSC)NC(=O)[C@@H](NC(=O)[C@H](CO)NC(=O)[C@H](Cc1ccccc1)NC(=O)[C@H](CCCNC(=N)N)NC(=O)[C@H](CCCNC(=N)N)NC(=O)[C@@H](N)CC(C)C)[C@@H](C)O)C(N)=O [SP2007, LRRFSTMPFMFAbu] (H-LRRFSTMPFMF[Abu]-NH2; N-terminus assumed)
Activity in Proliferation (HUVEC [1]; HUVEC): No | Proliferation Inhibition (IC50 in uM) (HUVEC [1]; HUVEC, summary tables 2-4, 6, 7): Inactive | Migration Inhibition (50 uM) (HUVEC [2]): Inactive | Activity in Migration (HUVEC [2]): No | inhibition of migration (HUVEC [2]; concentration not given): absence of activity | Adhesion Inhibition (100 uM) (HUVEC [3]): 11% | Activity in Adhesion (HUVEC [3]): No | inhibition of adhesion (HUVEC [3]; concentration not given): absence of activity | Tube formation Inhibition (100 uM) (HUVEC [4]): Inactive | Activity in Tube formation (HUVEC [4]): No

CC[C@H](NC(=O)[C@H](Cc1ccccc1)NC(=O)[C@H](CCSC)NC(=O)[C@@H](N)Cc1ccccc1)C(=O)N[C@@H](CC(N)=O)C(=O)N[C@H](C(=O)N[C@@H](CC(N)=O)C(=O)N[C@@H](CC(N)=O)C(=O)N[C@H](C(=O)N[C@@H](CC)C(=O)N[C@@H](CC(N)=O)C(=O)N[C@@H](Cc1ccccc1)C(=O)O)C(C)C)[C@@H](C)CC [SP2010, FMFAbuNINNVAbuNF] (H-FMF[Abu]NINNV[Abu]NF-OH; N-terminus and C-terminus assumed)
IC50 (HUVEC [1]): 155 µM | Activity in Proliferation (HUVEC [1]; HUVEC): No | Migration Inhibition (50 uM) (HUVEC [2]): 13% | Activity in Migration (HUVEC [2]): No | Adhesion Inhibition (100 uM) (HUVEC [3]): 82.69% | Activity in Adhesion (HUVEC [3]): Yes | Tube formation Inhibition (100 uM) (HUVEC [4]): complete inhibition of tube formation | Activity in Tube formation (HUVEC [4]): Yes | inhibition of tube formation (FIG. 20) (HUVEC [4]): displayed activity in inhibiting tube formation

CC[C@H](NC(=O)[C@H](Cc1ccccc1)NC(=O)[C@H](CCSC)NC(=O)[C@H](C)NC(=O)[C@@H]1CCCN1C(=O)[C@H](CCSC)NC(=O)[C@@H](NC(=O)[C@H](CO)NC(=O)[C@H](Cc1ccccc1)NC(=O)[C@H](CCCNC(=N)N)NC(=O)[C@H](CCCNC(=N)N)NC(=O)[C@@H](N)CC(C)C)[C@@H](C)O)C(=O)N[C@@H](CC(N)=O)C(=O)N[C@H](C(=O)N[C@@H](CC(N)=O)C(=O)N[C@@H](CC(N)=O)C(=O)N[C@H](C(=O)N[C@@H](CC)C(=O)N[C@@H](CC(N)=O)C(=O)N[C@@H](Cc1ccccc1)C(N)=O)C(C)C)[C@@H](C)CC [SP2015, LRRFSTMPAMF(Abu)NINNV(Abu)NF] (H-LRRFSTMPAMF[Abu]NINNV[Abu]NF-NH2; N-terminus assumed)
Migration Inhibition (50 uM) (HUVEC [2]): 100% | Adhesion Inhibition (100 uM) (HUVEC [3]): 96% | Tube formation Inhibition (100 uM) (HUVEC [4]): Complete | inhibition of tube formation (HUVEC [4]): significant inhibition of tube formation

CC[C@H](NC(=O)[C@H](Cc1ccccc1)NC(=O)[C@H](C)NC(=O)[C@H](Cc1ccccc1)NC(=O)[C@@H]1CCCN1C(=O)[C@H](CCSC)NC(=O)[C@@H](NC(=O)[C@H](CO)NC(=O)[C@H](Cc1ccccc1)NC(=O)[C@H](CCCNC(=N)N)NC(=O)[C@H](CCCNC(=N)N)NC(=O)[C@@H](N)CC(C)C)[C@@H](C)O)C(=O)N[C@@H](CC(N)=O)C(=O)N[C@H](C(=O)N[C@@H](CC(N)=O)C(=O)N[C@@H](CC(N)=O)C(=O)N[C@H](C(=O)N[C@@H](CC)C(=O)N[C@@H](CC(N)=O)C(=O)N[C@@H](Cc1ccccc1)C(N)=O)C(C)C)[C@@H](C)CC [SP2016, LRRFSTMPFAF(Abu)NINNV(Abu)NF] (H-LRRFSTMPFAF[Abu]NINNV[Abu]NF-NH2; N-terminus assumed)
Migration Inhibition (50 uM) (HUVEC [2]): 99.6% | Adhesion Inhibition (100 uM) (HUVEC [3]): 96%

CC[C@H](NC(=O)[C@H](C)NC(=O)[C@H](CCSC)NC(=O)[C@H](Cc1ccccc1)NC(=O)[C@@H]1CCCN1C(=O)[C@H](CCSC)NC(=O)[C@@H](NC(=O)[C@H](CO)NC(=O)[C@H](Cc1ccccc1)NC(=O)[C@H](CCCNC(=N)N)NC(=O)[C@H](CCCNC(=N)N)NC(=O)[C@@H](N)CC(C)C)[C@@H](C)O)C(=O)N[C@@H](CC(N)=O)C(=O)N[C@H](C(=O)N[C@@H](CC(N)=O)C(=O)N[C@@H](CC(N)=O)C(=O)N[C@H](C(=O)N[C@@H](CC)C(=O)N[C@@H](CC(N)=O)C(=O)N[C@@H](Cc1ccccc1)C(N)=O)C(C)C)[C@@H](C)CC [SP2017, LRRFSTMPFMA(Abu)NINNV(Abu)NF] (H-LRRFSTMPFMA[Abu]NINNV[Abu]NF-NH2; N-terminus assumed)
Migration Inhibition (50 uM) (HUVEC [2]): 100% | Adhesion Inhibition (100 uM) (HUVEC [3]): 95.5%%

CCCC[C@H](NC(=O)[C@H](Cc1ccccc1)NC(=O)[C@@H]1CCCN1C(=O)[C@H](CCSC)NC(=O)[C@@H](NC(=O)[C@H](CO)NC(=O)[C@H](Cc1ccccc1)NC(=O)[C@H](CCCNC(=N)N)NC(=O)[C@H](CCCNC(=N)N)NC(=O)[C@@H](N)CC(C)C)[C@@H](C)O)C(=O)N[C@@H](Cc1ccccc1)C(=O)N[C@@H](CC)C(=O)N[C@@H](CC(N)=O)C(=O)N[C@H](C(=O)N[C@@H](CC(N)=O)C(=O)N[C@@H](CC(N)=O)C(=O)N[C@H](C(=O)N[C@@H](CC)C(=O)N[C@@H](CC(N)=O)C(=O)N[C@@H](Cc1ccccc1)C(N)=O)C(C)C)[C@@H](C)CC [SP2018, LRRFSTMPF(Nle)F(Abu)NINNV(Abu)NF] (H-LRRFSTMPF[Nle]F[Abu]NINNV[Abu]NF-NH2; N-terminus assumed)
Migration Inhibition (50 uM) (HUVEC [2]): 100% | Adhesion Inhibition (100 uM) (HUVEC [3]): 90.9%%

CC[C@H](NC(=O)[C@H](Cc1ccc(Cl)cc1)NC(=O)[C@H](CCSC)NC(=O)[C@H](Cc1ccccc1)NC(=O)[C@@H]1CCCN1C(=O)[C@H](CCSC)NC(=O)[C@@H](NC(=O)[C@H](CO)NC(=O)[C@H](Cc1ccccc1)NC(=O)[C@H](CCCNC(=N)N)NC(=O)[C@H](CCCNC(=N)N)NC(=O)[C@@H](N)CC(C)C)[C@@H](C)O)C(=O)N[C@@H](CC(N)=O)C(=O)N[C@H](C(=O)N[C@@H](CC(N)=O)C(=O)N[C@@H](CC(N)=O)C(=O)N[C@H](C(=O)N[C@@H](CC)C(=O)N[C@@H](CC(N)=O)C(=O)N[C@@H](Cc1ccccc1)C(N)=O)C(C)C)[C@@H](C)CC [SP2019, LRRFSTMPFM(4-ClPhe)(Abu)NINNV(Abu)NF] (H-LRRFSTMPFM[Phe(4-Cl)][Abu]NINNV[Abu]NF-NH2; N-terminus assumed)
Migration Inhibition (50 uM) (HUVEC [2]): 98% | Adhesion Inhibition (100 uM) (HUVEC [3]): 95.9%

LRRFSTMPFMFGNINNVGNF-NH2 [SP2002]
IC50 (HUVEC [1]): 31.4 µM | Migration Inhibition (50 uM) (HUVEC [2]): 87.9% | Tube formation Inhibition (100 uM) (HUVEC [4]): Complete
